{"source": "paper PMC9516332", "about": "(Frontiers in Oncology, 2022)", "origin": "cited, not measured here", "key": {"[1]": {"target": "T1, panel of 255 wild-type kinases (Homo sapiens, UniProt O14965)", "T1 sequence (O14965 1-403)": "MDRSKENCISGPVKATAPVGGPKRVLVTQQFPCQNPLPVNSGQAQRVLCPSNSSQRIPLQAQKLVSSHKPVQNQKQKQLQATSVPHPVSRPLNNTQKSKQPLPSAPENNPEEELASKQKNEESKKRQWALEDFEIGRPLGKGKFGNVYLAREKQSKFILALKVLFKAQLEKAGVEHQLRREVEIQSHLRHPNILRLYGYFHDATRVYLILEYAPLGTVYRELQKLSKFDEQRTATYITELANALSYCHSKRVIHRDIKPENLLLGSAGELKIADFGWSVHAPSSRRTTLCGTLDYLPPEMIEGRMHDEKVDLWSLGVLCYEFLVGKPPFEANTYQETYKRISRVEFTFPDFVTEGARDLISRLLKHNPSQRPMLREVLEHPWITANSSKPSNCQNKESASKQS", "conditions": "1 µmol/L single concentration, cited from earlier work; for %-inhibition AurA: AurA kinase assay; for %-inhibition AurA/TPX2: AurA/TPX2 kinase assay"}, "[2]": {"target": "panel of 255 wild-type kinases (Homo sapiens, UniProt P31751)", "sequence (P31751 whole entry)": "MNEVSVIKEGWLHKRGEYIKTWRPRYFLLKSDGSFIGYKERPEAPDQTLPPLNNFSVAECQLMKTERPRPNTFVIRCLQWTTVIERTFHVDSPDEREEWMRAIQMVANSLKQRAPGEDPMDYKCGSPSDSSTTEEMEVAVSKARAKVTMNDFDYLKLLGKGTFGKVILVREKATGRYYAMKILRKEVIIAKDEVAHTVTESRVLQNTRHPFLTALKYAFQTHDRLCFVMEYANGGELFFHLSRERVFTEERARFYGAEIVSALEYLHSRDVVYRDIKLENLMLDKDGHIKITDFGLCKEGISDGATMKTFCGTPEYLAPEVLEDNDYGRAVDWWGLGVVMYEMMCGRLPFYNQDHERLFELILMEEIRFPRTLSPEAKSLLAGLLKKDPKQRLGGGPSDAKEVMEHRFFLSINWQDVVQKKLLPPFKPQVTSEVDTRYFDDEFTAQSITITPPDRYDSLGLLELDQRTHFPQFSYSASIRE", "conditions": "AKT2 kinase assay, 1 µmol/L single concentration, cited from earlier work"}, "[3]": {"system": "panel of 255 wild-type kinases", "conditions": "cited from earlier work"}, "[4]": {"target": "panel of 255 wild-type kinases (Homo sapiens, UniProt P54756)", "sequence (P54756 25-1037)": "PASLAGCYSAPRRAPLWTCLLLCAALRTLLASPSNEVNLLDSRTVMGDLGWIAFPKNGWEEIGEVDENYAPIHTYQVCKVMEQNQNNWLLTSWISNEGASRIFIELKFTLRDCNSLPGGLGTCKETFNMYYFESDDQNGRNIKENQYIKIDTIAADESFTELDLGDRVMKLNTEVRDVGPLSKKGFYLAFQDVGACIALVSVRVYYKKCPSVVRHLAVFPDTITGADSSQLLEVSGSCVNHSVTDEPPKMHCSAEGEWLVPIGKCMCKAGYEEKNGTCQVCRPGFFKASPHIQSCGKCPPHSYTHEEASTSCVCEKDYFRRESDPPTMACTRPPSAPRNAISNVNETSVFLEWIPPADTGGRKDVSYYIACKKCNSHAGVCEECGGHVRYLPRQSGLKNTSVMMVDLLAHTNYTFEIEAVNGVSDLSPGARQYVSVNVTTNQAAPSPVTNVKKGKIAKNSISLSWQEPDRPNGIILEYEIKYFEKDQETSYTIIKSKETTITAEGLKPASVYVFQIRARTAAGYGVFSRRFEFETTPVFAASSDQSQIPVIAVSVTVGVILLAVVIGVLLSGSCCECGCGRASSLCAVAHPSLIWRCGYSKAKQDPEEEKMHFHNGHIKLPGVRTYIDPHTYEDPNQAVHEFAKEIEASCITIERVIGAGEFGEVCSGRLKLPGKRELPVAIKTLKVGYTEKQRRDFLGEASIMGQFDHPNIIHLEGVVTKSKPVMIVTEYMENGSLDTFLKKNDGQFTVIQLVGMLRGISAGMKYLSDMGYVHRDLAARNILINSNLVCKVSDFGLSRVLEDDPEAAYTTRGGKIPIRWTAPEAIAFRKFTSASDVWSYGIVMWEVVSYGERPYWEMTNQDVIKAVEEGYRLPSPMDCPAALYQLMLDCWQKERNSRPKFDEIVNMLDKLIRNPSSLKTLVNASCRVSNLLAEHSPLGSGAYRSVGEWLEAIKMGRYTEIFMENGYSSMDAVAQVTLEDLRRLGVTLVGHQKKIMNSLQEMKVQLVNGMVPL", "conditions": "kinase EPHA5, 1 µmol/L single concentration, cited from earlier work"}, "[5]": {"target": "panel of 255 wild-type kinases (Homo sapiens, UniProt P78368)", "sequence (P78368 whole entry)": "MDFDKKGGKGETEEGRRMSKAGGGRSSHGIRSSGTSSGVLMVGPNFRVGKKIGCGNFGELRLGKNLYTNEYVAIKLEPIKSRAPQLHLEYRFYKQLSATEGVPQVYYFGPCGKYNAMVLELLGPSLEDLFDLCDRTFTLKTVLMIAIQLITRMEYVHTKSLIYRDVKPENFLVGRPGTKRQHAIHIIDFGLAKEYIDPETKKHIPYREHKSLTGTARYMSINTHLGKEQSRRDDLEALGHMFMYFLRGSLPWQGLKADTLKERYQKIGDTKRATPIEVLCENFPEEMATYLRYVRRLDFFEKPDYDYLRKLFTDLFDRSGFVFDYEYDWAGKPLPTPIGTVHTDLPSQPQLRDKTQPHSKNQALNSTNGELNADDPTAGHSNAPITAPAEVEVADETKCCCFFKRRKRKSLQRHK", "conditions": "kinase CK1γ2, 1 µmol/L single concentration, cited from earlier work"}, "[6]": {"target": "panel of 255 wild-type kinases (Homo sapiens, UniProt P04629)", "sequence (P04629 33-796)": "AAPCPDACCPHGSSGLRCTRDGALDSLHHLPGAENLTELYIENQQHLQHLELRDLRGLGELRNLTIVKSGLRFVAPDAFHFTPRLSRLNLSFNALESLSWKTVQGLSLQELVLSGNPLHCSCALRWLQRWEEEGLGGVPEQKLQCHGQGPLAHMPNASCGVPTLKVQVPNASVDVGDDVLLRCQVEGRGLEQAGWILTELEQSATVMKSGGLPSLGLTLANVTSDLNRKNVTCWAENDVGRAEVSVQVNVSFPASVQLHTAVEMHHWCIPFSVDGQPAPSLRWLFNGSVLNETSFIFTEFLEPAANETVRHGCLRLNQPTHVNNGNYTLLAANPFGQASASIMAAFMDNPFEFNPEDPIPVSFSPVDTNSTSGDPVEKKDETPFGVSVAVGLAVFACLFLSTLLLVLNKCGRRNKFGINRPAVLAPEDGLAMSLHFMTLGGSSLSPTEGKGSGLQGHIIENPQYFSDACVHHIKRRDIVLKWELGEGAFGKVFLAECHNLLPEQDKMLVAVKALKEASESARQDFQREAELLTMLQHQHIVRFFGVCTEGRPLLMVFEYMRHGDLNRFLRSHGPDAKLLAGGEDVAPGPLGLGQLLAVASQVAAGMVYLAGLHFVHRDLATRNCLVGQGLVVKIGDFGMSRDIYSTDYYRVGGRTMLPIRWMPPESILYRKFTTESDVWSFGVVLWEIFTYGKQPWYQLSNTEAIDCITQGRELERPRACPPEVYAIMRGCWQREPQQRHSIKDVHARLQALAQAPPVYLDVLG", "conditions": "kinase TRKA, 1 µmol/L single concentration, cited from earlier work"}, "[7]": {"target": "panel of 255 wild-type kinases (Homo sapiens, UniProt O95819)", "sequence (O95819 whole entry)": "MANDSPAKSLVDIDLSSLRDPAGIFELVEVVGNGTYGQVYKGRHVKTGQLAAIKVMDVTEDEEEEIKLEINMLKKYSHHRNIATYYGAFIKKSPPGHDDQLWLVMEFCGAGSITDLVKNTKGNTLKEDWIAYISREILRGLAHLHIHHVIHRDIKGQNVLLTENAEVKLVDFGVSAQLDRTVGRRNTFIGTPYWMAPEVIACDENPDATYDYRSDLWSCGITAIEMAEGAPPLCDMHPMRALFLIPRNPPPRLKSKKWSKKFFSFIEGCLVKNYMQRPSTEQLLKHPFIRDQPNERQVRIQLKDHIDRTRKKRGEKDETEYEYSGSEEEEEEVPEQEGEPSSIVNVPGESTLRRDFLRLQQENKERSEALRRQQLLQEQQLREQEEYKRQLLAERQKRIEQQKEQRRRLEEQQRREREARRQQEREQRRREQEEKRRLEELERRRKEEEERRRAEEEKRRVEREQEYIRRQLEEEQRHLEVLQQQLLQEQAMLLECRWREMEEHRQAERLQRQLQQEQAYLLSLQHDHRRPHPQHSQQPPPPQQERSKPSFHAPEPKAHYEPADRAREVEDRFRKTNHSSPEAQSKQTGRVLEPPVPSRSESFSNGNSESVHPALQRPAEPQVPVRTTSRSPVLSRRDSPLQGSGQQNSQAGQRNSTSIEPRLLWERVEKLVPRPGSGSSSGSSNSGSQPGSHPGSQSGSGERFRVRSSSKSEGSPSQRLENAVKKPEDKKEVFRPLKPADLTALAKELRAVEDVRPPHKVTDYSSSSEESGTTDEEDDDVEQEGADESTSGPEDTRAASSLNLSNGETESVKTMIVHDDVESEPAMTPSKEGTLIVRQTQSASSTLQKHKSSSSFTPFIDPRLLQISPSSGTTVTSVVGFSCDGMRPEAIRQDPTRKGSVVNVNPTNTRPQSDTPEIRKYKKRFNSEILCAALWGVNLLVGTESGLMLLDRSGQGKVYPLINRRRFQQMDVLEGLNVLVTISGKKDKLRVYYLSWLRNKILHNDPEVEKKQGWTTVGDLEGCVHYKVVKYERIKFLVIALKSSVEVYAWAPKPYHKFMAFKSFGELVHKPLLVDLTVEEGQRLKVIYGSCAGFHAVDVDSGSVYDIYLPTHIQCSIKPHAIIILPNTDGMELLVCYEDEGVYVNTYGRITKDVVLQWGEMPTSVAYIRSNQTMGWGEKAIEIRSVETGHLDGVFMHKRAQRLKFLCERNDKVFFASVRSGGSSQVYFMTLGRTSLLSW", "conditions": "kinase HGK, 1 µmol/L single concentration, cited from earlier work"}, "[8]": {"target": "panel of 255 wild-type kinases (Homo sapiens, UniProt Q14012)", "sequence (Q14012 whole entry)": "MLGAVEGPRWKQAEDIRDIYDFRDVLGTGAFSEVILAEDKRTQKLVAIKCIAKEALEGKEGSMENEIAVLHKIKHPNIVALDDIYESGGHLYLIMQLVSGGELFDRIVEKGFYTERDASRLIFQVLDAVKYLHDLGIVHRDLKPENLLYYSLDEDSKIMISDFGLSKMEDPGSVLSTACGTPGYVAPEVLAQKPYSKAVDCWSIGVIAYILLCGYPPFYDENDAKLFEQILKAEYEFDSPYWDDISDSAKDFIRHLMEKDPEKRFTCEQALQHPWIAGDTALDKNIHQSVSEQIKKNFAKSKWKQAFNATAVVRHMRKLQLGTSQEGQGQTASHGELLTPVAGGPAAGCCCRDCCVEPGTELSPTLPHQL", "conditions": "CaMK1α kinase assay, 1 µmol/L single concentration, cited from earlier work"}, "[9]": {"target": "panel of 255 wild-type kinases (Homo sapiens, UniProt P49759)", "sequence (P49759 whole entry)": "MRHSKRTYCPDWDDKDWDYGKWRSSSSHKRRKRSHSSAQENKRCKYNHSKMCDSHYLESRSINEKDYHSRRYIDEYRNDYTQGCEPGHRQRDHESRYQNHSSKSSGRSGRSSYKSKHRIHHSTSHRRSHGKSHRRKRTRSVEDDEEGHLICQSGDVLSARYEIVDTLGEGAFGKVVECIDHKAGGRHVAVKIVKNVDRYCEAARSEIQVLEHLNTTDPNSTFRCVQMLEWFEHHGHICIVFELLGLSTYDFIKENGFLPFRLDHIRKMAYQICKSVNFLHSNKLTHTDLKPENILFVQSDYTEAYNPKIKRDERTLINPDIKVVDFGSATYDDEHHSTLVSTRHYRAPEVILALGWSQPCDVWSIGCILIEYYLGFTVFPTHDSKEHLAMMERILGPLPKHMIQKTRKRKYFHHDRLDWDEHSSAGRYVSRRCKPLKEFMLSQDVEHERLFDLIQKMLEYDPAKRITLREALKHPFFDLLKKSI", "conditions": "kinase CLK1, 1 µmol/L single concentration, cited from earlier work"}, "[10]": {"target": "T2, panel of 255 wild-type kinases (Homo sapiens, UniProt O15111)", "T2 sequence (O15111 1-745)": "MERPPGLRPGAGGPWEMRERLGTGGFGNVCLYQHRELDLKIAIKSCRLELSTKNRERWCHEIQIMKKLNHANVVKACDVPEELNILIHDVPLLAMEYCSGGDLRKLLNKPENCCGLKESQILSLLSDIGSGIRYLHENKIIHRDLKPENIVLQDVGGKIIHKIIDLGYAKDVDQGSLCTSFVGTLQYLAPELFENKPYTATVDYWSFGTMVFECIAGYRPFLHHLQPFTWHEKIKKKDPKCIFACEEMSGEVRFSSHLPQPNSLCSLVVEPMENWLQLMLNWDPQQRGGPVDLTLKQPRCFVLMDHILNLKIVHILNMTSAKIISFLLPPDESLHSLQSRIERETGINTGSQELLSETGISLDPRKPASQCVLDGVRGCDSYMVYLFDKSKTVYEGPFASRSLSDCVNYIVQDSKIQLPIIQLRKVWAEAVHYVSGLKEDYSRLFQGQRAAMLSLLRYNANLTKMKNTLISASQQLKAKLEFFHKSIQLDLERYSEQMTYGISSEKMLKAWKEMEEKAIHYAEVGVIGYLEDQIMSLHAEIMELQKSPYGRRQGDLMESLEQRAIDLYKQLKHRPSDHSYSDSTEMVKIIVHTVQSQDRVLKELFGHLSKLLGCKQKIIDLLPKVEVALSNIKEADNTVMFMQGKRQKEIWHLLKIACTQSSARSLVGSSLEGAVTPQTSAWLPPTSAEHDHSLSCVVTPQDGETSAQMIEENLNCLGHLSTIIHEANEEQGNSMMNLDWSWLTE", "conditions": "kinase IKKα, 1 µmol/L single concentration, cited from earlier work"}, "[11]": {"conditions": "ref DOI: 10.1371/journal.pone.0092146"}, "[12]": {"conditions": "ref DOI: 10.1158/1535-7163.MCT-18-0877"}}, "note": "Read-outs that look alike come from different tables or passages of the source.", "data": [{"smiles": "CC(=O)Nc1cccc(-n2c(=O)n(C3CC3)c(=O)c3c(Nc4ccc(I)cc4F)n(C)c(=O)c(C)c32)c1", "note": "[trametinib]", "values": [{"measurement": "%-inhibition AurA", "setting": "[1]; [11]", "result": -2, "unit": "%"}, {"measurement": "%-inhibition AurA/TPX2", "setting": "[1]; [11]", "result": -5.37, "unit": "%"}, {"measurement": "%-inhibition AKT2", "setting": "[2]; [11]", "result": -8, "unit": "%"}, {"measurement": "%-inhibition at 1 µmol/L, LYNb", "setting": "[3]; kinase LYNb, 1 µmol/L single concentration, ref DOI: 10.1371/journal.pone.0092146", "result": -2.58, "unit": "%"}, {"measurement": "%-inhibition at 1 µmol/L, PKCβ2", "setting": "[3]; kinase PKCβ2, 1 µmol/L single concentration, ref DOI: 10.1371/journal.pone.0092146", "result": -1.58, "unit": "%"}, {"measurement": "%-inhibition at 1 µmol/L, SRM", "setting": "[3]; kinase SRM, 1 µmol/L single concentration, ref DOI: 10.1371/journal.pone.0092146", "result": -4, "unit": "%"}, {"measurement": "%-inhibition at 1 µmol/L, EPHA5", "setting": "[4]; [11]", "result": -2.67, "unit": "%"}, {"measurement": "%-inhibition at 1 µmol/L, CK1γ2", "setting": "[5]; [11]", "result": -2.15, "unit": "%"}, {"measurement": "%-inhibition at 1 µmol/L, TRKA", "setting": "[6]; [11]", "result": -1.17, "unit": "%"}, {"measurement": "%-inhibition at 1 µmol/L, HGK", "setting": "[7]; [11]", "result": -3.71, "unit": "%"}, {"measurement": "%-inhibition CaMK1α", "setting": "[8]; [11]", "result": -2, "unit": "%"}, {"measurement": "%-inhibition at 1 µmol/L, CLK1", "setting": "[9]; [11]", "result": -0.618, "unit": "%"}, {"measurement": "%-inhibition at 1 µmol/L, IKKα", "setting": "[10]; [11]", "result": 2.63, "unit": "%"}]}, {"smiles": "CC#CC(=O)N1CCC[C@H]1c1nc(-c2ccc(C(=O)Nc3ccccn3)cc2)c2c(N)nccn12", "note": "[acalabrutinib]", "values": [{"measurement": "%-inhibition AurA", "setting": "[1]; [12]", "result": 2.34, "unit": "%"}, {"measurement": "%-inhibition AurA/TPX2", "setting": "[1]; [12]", "result": -4.71, "unit": "%"}, {"measurement": "%-inhibition AKT2", "setting": "[2]; [12]", "result": -2.69, "unit": "%"}, {"measurement": "%-inhibition at 1 µmol/L, FYN [isoform b]", "setting": "[3]; kinase FYN [isoform b], 1 µmol/L single concentration, ref DOI: 10.1158/1535-7163.MCT-18-0877", "result": -1.25, "unit": "%"}, {"measurement": "%-inhibition at 1 µmol/L, LYNb", "setting": "[3]; kinase LYNb, 1 µmol/L single concentration, ref DOI: 10.1158/1535-7163.MCT-18-0877", "result": -2, "unit": "%"}, {"measurement": "%-inhibition at 1 µmol/L, PKCβ2", "setting": "[3]; kinase PKCβ2, 1 µmol/L single concentration, ref DOI: 10.1158/1535-7163.MCT-18-0877", "result": -12, "unit": "%"}, {"measurement": "%-inhibition at 1 µmol/L, SRM", "setting": "[3]; kinase SRM, 1 µmol/L single concentration, ref DOI: 10.1158/1535-7163.MCT-18-0877", "result": 39, "unit": "%"}, {"measurement": "%-inhibition at 1 µmol/L, EPHA5", "setting": "[4]; [12]", "result": -1.17, "unit": "%"}, {"measurement": "%-inhibition at 1 µmol/L, CK1γ2", "setting": "[5]; [12]", "result": -7, "unit": "%"}, {"measurement": "%-inhibition at 1 µmol/L, TRKA", "setting": "[6]; [12]", "result": 13, "unit": "%"}, {"measurement": "%-inhibition at 1 µmol/L, HGK", "setting": "[7]; [12]", "result": -1.42, "unit": "%"}, {"measurement": "%-inhibition CaMK1α", "setting": "[8]; [12]", "result": -4.29, "unit": "%"}, {"measurement": "%-inhibition at 1 µmol/L, CLK1", "setting": "[9]; [12]", "result": -8, "unit": "%"}, {"measurement": "%-inhibition at 1 µmol/L, IKKα", "setting": "[10]; [12]", "result": -1.45, "unit": "%"}]}, {"smiles": "C=CC(=O)Nc1cc(Nc2nccc(-c3cn(C)c4ccccc34)n2)c(OC)cc1N(C)CCN(C)C", "note": "[osimertinib]", "values": [{"measurement": "%-inhibition AurA", "setting": "[1]; [12]", "result": 9, "unit": "%"}, {"measurement": "%-inhibition AurA/TPX2", "setting": "[1]; [12]", "result": 7.38, "unit": "%"}, {"measurement": "%-inhibition AKT2", "setting": "[2]; [12]", "result": 2.2, "unit": "%"}, {"measurement": "%-inhibition at 1 µmol/L, FYN [isoform b]", "setting": "[3]", "result": 14, "unit": "%"}, {"measurement": "%-inhibition at 1 µmol/L, LYNb", "setting": "[3]", "result": 10, "unit": "%"}, {"measurement": "%-inhibition at 1 µmol/L, PKCβ2", "setting": "[3]", "result": 17, "unit": "%"}, {"measurement": "%-inhibition at 1 µmol/L, SRM", "setting": "[3]", "result": 32, "unit": "%"}, {"measurement": "%-inhibition at 1 µmol/L, EPHA5", "setting": "[4]; [12]", "result": -0.189, "unit": "%"}, {"measurement": "%-inhibition at 1 µmol/L, CK1γ2", "setting": "[5]; [12]", "result": 17, "unit": "%"}, {"measurement": "%-inhibition at 1 µmol/L, TRKA", "setting": "[6]; [12]", "result": 27, "unit": "%"}, {"measurement": "%-inhibition at 1 µmol/L, HGK", "setting": "[7]; [12]", "result": 80, "unit": "%"}, {"measurement": "%-inhibition CaMK1α", "setting": "[8]; [12]", "result": 10, "unit": "%"}, {"measurement": "%-inhibition at 1 µmol/L, CLK1", "setting": "[9]; [12]", "result": 47, "unit": "%"}, {"measurement": "%-inhibition at 1 µmol/L, IKKα", "setting": "[10]; [12]", "result": 5, "unit": "%"}]}]}
